Laboratory results as given in BindingDB's records for doi:10.1111/j.1476-5381.1983.tb10541.x (University of Edinburgh, 1983).
pKi: −log10 of the molar value. Several values for one entry are separate records, joined by “and”; a condition that tells them apart may be missing. Equal values may be shown once.

Target: T1, Thromboxane A2 receptor (Mus musculus, UniProt P30987)
T1 sequence (P30987 whole entry): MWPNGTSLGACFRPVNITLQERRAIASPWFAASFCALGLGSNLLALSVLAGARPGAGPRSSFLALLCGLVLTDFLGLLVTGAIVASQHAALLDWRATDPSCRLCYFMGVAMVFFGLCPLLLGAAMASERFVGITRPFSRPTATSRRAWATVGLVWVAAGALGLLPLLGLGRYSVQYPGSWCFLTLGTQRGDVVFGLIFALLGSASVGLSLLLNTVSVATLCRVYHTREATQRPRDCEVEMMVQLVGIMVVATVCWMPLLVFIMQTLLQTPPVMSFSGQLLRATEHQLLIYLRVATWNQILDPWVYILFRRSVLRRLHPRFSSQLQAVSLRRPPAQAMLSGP

Row | Compound | pKi
1 | CCCCC/C=C\C/C=C\C/C=C\C/C=C\CCCC(=O)O [[1-14C]Arachidonic acid] | < 5.00
2 | CCCCCC(C)(O)C=CC1C(O)CC(O)C1CC=CCCCC(=O)O (centres undefined) [NSC_37255] | < 5.00
3 | CCCCC[C@H](O)/C=C/[C@@H]1[C@@H](/C=C\CCCC(=O)O)[C@H]2CO[C@@H]1C2 [11,9-epoxymethano PGH2] | 6.44
4 | CCCCC[C@H](O)/C=C/[C@H]1O[C@H]2C[C@H](O2)[C@@H]1C/C=C\CCCC(=O)O [CAS_57576-52-0] | 5.89
5 | CCCCC[C@H](O)/C=C/[C@H]1C2OC2C(=O)[C@@H]1C/C=C\CCCC(=O)O (stereo partly drawn) [10alpha,11alpha-oxido PGA2] | < 5.00
6 | CCCCC[C@H](O)/C=C/C1C[C@H]2C[C@H](C2)[C@@H]1C/C=C\CCCC(=O)O (some centres undefined) [CAS_74034-56-3] | 5.82
7 | CCCCC[C@H](O)/C=C/[C@@H]1[C@@H](C/C=C\CCCC(=O)O)[C@@H]2C[C@H]1OO2 [PGH2] | 6.70 and 5.80
8 | O=C(O)CCC/C=C/C[C@H]1C2C=CC(C2)[C@@H]1/C=C/[C@H](O)COc1ccc(F)cc1 (some centres undefined) [EP011] | 5.92
9 | O=C(O)CCCC=CCC1C(O)CC(O)C1C=CC(O)COc1ccc(F)cc1 (centres undefined) [CAS_188200] | 6.49

The next lines start with the values.

Row | pKi | Compound
10 | 5.96 | CCCCC[C@H](O)CC[C@H]1c2cc([nH]n2)[C@@H]1CC=CCCCC(=O)O [9,11-AzoPGH2]
11 | 6.36 | CCCCCC(O)C=CC1C2CCC(C2)C1CC=CCCCC(=O)O (centres undefined) [9,11-ethano PGH2]
12 | 5.85 | CCCCC[C@@H](O)/C=C/[C@H]1C[C@H]2C[C@@H]([C@@H]1C/C=C\CCCC(=O)O)C2(C)C [CAS_71111-01-8]
13 | < 5.00 | COc1cc(CC2NCCc3cc(O)c(O)cc32)cc(OC)c1OC (centres undefined) [1-(3,4,5-Trimethoxy-benzyl)-1,2,3,4-tetrahydro-isoquinoline-6,7-diol]
14 | < 5.00 | CCCCC[C@H](O)/C=C/C1[C@H](O)C[C@H](O)[C@@H]1C/C=C\CCCC(=O)O (stereo partly drawn) [(Z)-7-[(1R,3R,5S)-3,5-Dihydroxy-2-((E)-(S)-3-hydroxy-oct-1-enyl)-cyclopentyl]-hept-5-enoic acid]
15 | < 5.00 | CCCCC[C@H](O)/C=C/[C@H]1[C@H](O)CC(=O)[C@@H]1C/C=C\CCCC(=O)O [DINOPROSTONE]
16 | < 5.00 | CCCCC[C@@H](O)/C=C/[C@H]1[C@H](O)CC(=O)[C@@H]1CCCCCCC(=O)O
17 | 6.34 | O=C(O)CCCC=CCC1C2CCC(C2)C1C=NNC(=O)Nc1ccccc1 (centres undefined) [NSC_5311388]
18 | 6.11 | CCCCC(C)(C)[C@H](O)/C=C/[C@@H]1[C@@H](C/C=C\CCCC(=O)O)[C@@H](O)C[C@H]1O
19 | < 5.00 | CCCCCC(O)CC=C1C(=O)C=CC1CC=CCCCC(=O)O (centres undefined) [CAS_41598-07-6]
